Results: US10414759B2, “Phenylthiazoles and uses thereof” (Purdue Research Foundation, priority 2017, dated 2019)
Values after ≈ are worked out from the molar mass of the structure shown. “Also recorded” adds a separate entry of the source. Read-outs that look alike come from different tables or passages of the source. Values belong to the compound of their own block, whether it stands above or below them.

Tests used:
[1] = test system: Caco-2 cells; experiment: Caco-2 bidirectional permeability assay; details: for Mean A→B Papp: Caco-2, apical to basolateral
[2] = PBS solubility screen (turbidometric); type: physicochemical; details: for solubility at 2 h: aqueous buffer, kinetic from dmso stock
Procedure: The solutions were diluted 100-fold into PBS in a 96-well plate and mixed. The absorbance of the PBS-containing plate was measured prior to addition of the test agents to determine the background absorbance. After 2 h, the presence of precipitate was detected by turbidity (absorbance at 540 nm). […] The solubility limit is reported as the highest experimental concentration with no evidence of turbidity.

[3] = Metabolic stability in human liver microsomes; type: in vitro ADME; details: pH 7.4, human liver microsomes
Procedure: The tested compounds were incubated in duplicate with human liver microsomes at 37° C. The reaction contained microsomal protein in 100 mM potassium phosphate, 2 mM NADPH, 3 mM MgCl2, pH 7.4. A control was run for each test agent omitting NADPH to detect NADPH-free degradation. At 0, 10, 20, 40, and 60 minutes, an aliquot was removed from each experimental and control reaction and mixed with an equal volume of ice-cold Stop Solution (methanol containing haloperidol, diclofenac, or other internal standard). Stopped reactions are incubated at least ten minutes at −20° C., and an additional volume of water was added. The samples were centrifuged to remove precipitated protein, and the supernatants were analyzed by LC/MS/MS to quantitate the remaining parent. Data are converted to % remaining by dividing by the time zero concentration value. Data are fit to a first-order decay model to determine half-life. Intrinsic clearance is calculated from the half-life and the protein concentrations: CLint=ln(2)/(T1/2 [microsomal protein]).

[4] = test system: MRSA (2658 RCMB); experiment: MIC against MRSA (2658 RCMB), broth dilution; type: cell-based, Staphylococcus aureus; details: for MIC: Staphylococcus aureus
Procedure: Bacteria were cultured in cation-adjusted Mueller Hinton broth in a 96-well plate. Compounds, using triplicate samples, were added to the plate and serially diluted. […] Plates were visually inspected and the MIC was categorized as the concentration at which no visible growth of bacteria was observed. The average of triplicate MIC determinations is reported.
(§1) A bacterial solution equivalent to 0.5 McFarland standard was prepared and diluted in cation-adjusted Mueller-Hinton broth (CAMHB) to achieve a bacterial concentration of about 5×10^5 CFU/mL and seeded in 96-well plates. Enterococcus faecium was diluted in brain heart infusion broth. Enterococcus faecalis, Streptococcus pneumonia and Listeria monocytogenes were diluted in tryptone soya broth (TSB).

[5] = test system: MRSA (USA300); experiment: Time-kill assay; type: cell-based, Staphylococcus aureus; details: 3.0×MIC
Procedure: Aliquots (100 μL) were taken from each sample after 2, 4, 6, 8, 10, 12, and 24 hours, serially diluted in phosphate-buffered saline, and transferred to Trypticase soy agar (TSA) (Becton, Dickinson and Company, Sparks, Md., USA) plates. Plates were incubated at 37° C. for at least 16 hours before counting viable CFU/mL to determine the time required to reduce the bacterial cell count by 3-log10.

[6] = test system: S. aureus NRS107; experiment: MIC/MBC S. aureus strains (Table 8); type: cell-based, Staphylococcus aureus
Procedure: as §1

[7] = test system: VRS12 (VRSA); experiment: MIC/MBC S. aureus strains (Table 8); type: cell-based; details: Staphylococcus aureus, Table 8, VRS12 (VRSA)
Procedure: (§2) The minimum inhibitory concentration (MIC) of tested compounds and control antibiotics were determined using the broth microdilution method in accordance with the recommendations contained in the Clinical and Laboratory Standards Institute guidelines, against methicillin-sensitive (ATCC 6538 and NRS107), methicillin-resistant (MRSA), and vancomycin-resistant (VRSA) Staphylococcus aureus, Staphylococcus epidermidis, Enterococcus faecalis, E. faecium, Listeria monocytogenes, and Streptococcus pneumoniae clinical isolates. A bacterial solution equivalent to 0.5 McFarland standard was prepared and diluted in cation-adjusted Mueller-Hinton broth (CAMHB) to achieve a bacterial concentration of about 5×10^5 CFU/mL and seeded in 96-well plates. Enterococcus faecium was diluted in brain heart infusion broth. Enterococcus faecalis, Streptococcus pneumonia and Listeria monocytogenes were diluted in tryptone soya broth (TSB). Compounds and control drugs were added in the first row of 96-well plates and serially diluted (to achieve a concentration gradient ranging from 128 to 1 μg/mL). Plates were then incubated aerobically at 37° C. for at least 18 hours. The minimum bactericidal concentration (MBC) of the active compounds was tested by plating 5 μL from wells with no growth onto Tryptic soy agar (TSA) plates.

[8] = test system: VRS10 (VRSA); experiment: MIC/MBC S. aureus strains (Table 8); type: cell-based; details: Staphylococcus aureus, Table 8, VRS10 (VRSA)
Procedure: as §2

[9] = test system: MRSA NRS384 (USA300); experiment: MIC/MBC S. aureus strains (Table 8); type: cell-based; details: Staphylococcus aureus
Procedure: as §1

[10] = test system: MRSA NRS123 (USA400); experiment: MIC/MBC S. aureus strains (Table 8); type: cell-based; details: Staphylococcus aureus
Procedure: as §1

[11] = test system: MRSA NRS385; experiment: MIC/MBC S. aureus strains (Table 8); type: cell-based; details: Staphylococcus aureus
Procedure: as §1

[12] = test system: MRSA NRS386; experiment: MIC/MBC S. aureus strains (Table 8); type: cell-based; details: Staphylococcus aureus
Procedure: as §1

[13] = test system: MRSA NRS119; experiment: MIC/MBC S. aureus strains (Table 8); type: cell-based; details: Staphylococcus aureus
Procedure: as §1

[14] = test system: S. aureus ATCC 6538; experiment: MIC/MBC S. aureus strains (Table 8); type: cell-based; details: Staphylococcus aureus, ATCC6538
Procedure: as §1

[15] = test system: Methicillin-resistant Streptococcus pneumoniae ATCC 700677; experiment: MIC/MBC Gram-positive pathogens (Table 9); type: cell-based; details: ATCC700677
Procedure: as §1

[16] = test system: Methicillin-resistant Staphylococcus epidermidis NRS101; experiment: MIC/MBC Gram-positive pathogens (Table 9); type: cell-based
Procedure: as §1

[17] = test system: Enterococcus faecalis ATCC 51299 (VRE); experiment: MIC/MBC Gram-positive pathogens (Table 9); type: cell-based; details: Table 9, Enterococcus faecalis ATCC 51299 (VRE)
Procedure: as §1

[18] = test system: Cephalosporin-resistant Streptococcus pneumoniae ATCC 51916; experiment: MIC/MBC Gram-positive pathogens (Table 9); type: cell-based; details: ATCC51916
Procedure: as §1

[19] = test system: Listeria monocytogenes ATCC 19111; experiment: MIC/MBC Gram-positive pathogens (Table 9); type: cell-based
Procedure: as §1

[20] = test system: Enterococcus faecium ATCC 700221 (VRE); experiment: MIC/MBC Gram-positive pathogens (Table 9); type: cell-based; details: Table 9; Enterococcus faecium ATCC 700221 (VRE); read-out: MIC
Procedure: as §2

[21] = NADPH omitted, read-out: NADPH-free Clint
[22] = NADPH omitted, read-out: NADPH-free t1/2
[23] = with NADPH, read-out: NADPH-dependent t1/2
[24] = Table 1, MRSA (2658 RCMB), read-out: MIC ± SD
[25] = Staphylococcus aureus, Table 8, S. aureus NRS107

Mean A→B Papp [1]: 0.2 ×10⁻⁶ cm/s
Compound: CNC(=C[N+](=O)[O-])NCCSCc1ccc(CN(C)C)o1 [Ranitidine, ranitidine, reference compound]

solubility at 2 h [2]: 53 µM (≈ 20.9 µg/mL)
microsomal CLint [3, 21]: 0.5 µL/min/mg
half-life [3, 22]: > 1 h
half-life [3, 23]: 4.05 h
MIC [4, 24]: 0.78 µg/mL (≈ 1.98 µM)
melting point: 153.7 °C
Compound: CCCCc1ccc(-c2nc(C)c(-c3ccnc(NC(=N)N(C)C)n3)s2)cc1 [Compound 11, 3-{4-[2-(4-Butylphenyl)-4-methylthiazol-5-yl]pyrimidin-2-yl}-1,1-dimethylguanidine]
antibacterial (anti-MRSA) activity, in words ([4]; Table 1): more potent than vancomycin; also recorded: MIC value below one microgram/mL

solubility at 2 h [2]: 37 µM (≈ 12.9 µg/mL)
MIC [4, 24]: 0.78 µg/mL (≈ 2.24 µM)
melting point: 140.4 °C
Compound: Cc1nc(-c2ccc(C3=CCCCC3)cc2)sc1-c1ccnc(N)n1 [Compound 29, 4-{2-[4-(Cyclohex-1-en-1-yl)phenyl]-4-methylthiazol-5-yl}pyrimidin-2-amine]

Compound: Cc1nc(-c2ccc(-c3ccoc3)cc2)sc1-c1ccnc(N)n1 [Compound 24, 4-{2-[4-(Furan-3-yl)phenyl]-4-methylthiazol-5-yl}pyrimidin-2-amine]
solubility at 2 h ([2]; phosphate buffered saline (PBS), highest concentration with no precipitate (OD540), read-out: Solubility limit): 13 µM (≈ 4.35 µg/mL)
MIC ([4]; MRSA, read-out: MIC ± SD): 7.8 ± 0.5 µg/mL (≈ 23.3 µM)
melting point: 161.2 °C

less soluble than the lead compound 1 ([2]; 2 h): 32%
solubility at 2 h [2]: 42 µM (≈ 13.6 µg/mL)
microsomal CLint [3, 21]: 0.5 µL/min/mg
half-life [3, 22]: > 1 h
microsomal CLint ([3]; with NADPH, read-out: NADPH-dependent CLint): 3 to 7.5 µL/min/mg
half-life [3, 23]: 3.25 h
Mean A→B Papp [1]: 14.9 ×10⁻⁶ cm/s
Mean B→A Papp ([1]; Caco-2, basolateral to apical): 17 ×10⁻⁶ cm/s
Efflux ratio ([1]; Papp (B→A)/Papp (A→B)): 1.1
MIC [4, 24]: 3.12 ± 0.1 µg/mL (≈ 9.62 µM)
MIC ± SD ([4]; Table 1, MRSA (2658 RCMB)): 3.12 ± 0.10 µg/mL (≈ 9.62 µM)
melting point: 159 °C
Compound: CCCCc1ccc(-c2nc(C)c(-c3ccnc(N)n3)s2)cc1 [Compound 8, 4-[2-(4-Butylphenyl)-4-methylthiazol-5-yl]pyrimidin-2-amine]

MIC [6, 25]: 64 µg/mL (≈ 149 µM)
MIC ([7]; read-out: MIC): 4 µg/mL (≈ 9.33 µM)
MIC ([8]; read-out: MIC): 2 µg/mL (≈ 4.67 µM)
MIC [9]: 4 µg/mL (≈ 9.33 µM)
MIC [10]: 2 µg/mL (≈ 4.67 µM)
MIC [11]: 4 µg/mL (≈ 9.33 µM)
MIC [12]: 2 µg/mL (≈ 4.67 µM)
MIC [13]: 4 µg/mL (≈ 9.33 µM)
MIC [14]: 2 µg/mL (≈ 4.67 µM)
MIC [15]: 8 µg/mL (≈ 18.7 µM)
MIC [16]: 64 µg/mL (≈ 149 µM)
MIC [17]: 64 µg/mL (≈ 149 µM)
MIC [18]: 4 µg/mL (≈ 9.33 µM)
MIC ([19]; ATCC19111, Table 9, Listeria monocytogenes ATCC 19111): 2 µg/mL (≈ 4.67 µM)
MBC values relative to MIC values against L. monocytogenes ([19]; text b122): more than three-fold higher
MIC ([4]; Table 7, initial screening, MRSA (2658 RCMB), read-out: minimum inhibitory concentration (MIC)): 0.78 µg/mL (≈ 1.82 µM)
MIC [20]: 4 µg/mL (≈ 9.33 µM)
Compound: Cc1nc(-c2ccc(C(C)(C)C)cc2)sc1-c1ccnc(NC(=N)c2ccccn2)n1 [Compound 64, N-(4-(2-(4-(tert-Butyl)phenyl)-4-methylthiazol-5-yl)pyrimidin-2-yl) picolinimidamide]
time to three-log10 reduction in the initial inoculum of MRSA [5]: within six hours
bactericidal / bacteriostatic behaviour in time-kill assay, in words ([5]; MRSA): rapid bactericidal activity
time to completely eradicate the MRSA inoculum ([5]; t-butyl series): ≤ 24 h
MBC [6, 25]: > 64 µg/mL
activity against S. aureus NRS107, in words ([6]; text b117): inactive
MBC ([7]; read-out: MBC): 4 µg/mL (≈ 9.33 µM)
MBC ([8]; read-out: MBC): 4 µg/mL (≈ 9.33 µM)
MBC [9]: 4 µg/mL (≈ 9.33 µM)
MBC [10]: 2 µg/mL (≈ 4.67 µM)
MBC [11]: 4 µg/mL (≈ 9.33 µM)
MBC [12]: 2 µg/mL (≈ 4.67 µM)
MBC [13]: 4 µg/mL (≈ 9.33 µM)
MBC [14]: 4 µg/mL (≈ 9.33 µM)
MBC [15]: 8 µg/mL (≈ 18.7 µM)
MBC [16]: > 64 µg/mL
MBC ([17]; read-out: MBC): > 64 µg/mL
MBC [18]: 4 µg/mL (≈ 9.33 µM)
